Among the data in patent US20240124442A1, “TRICYCLIC-AMIDO-BICYCLIC PRMT5 INHIBITORS” (AMGEN INC., priority 2021, published 2024) are IC50 values, retold here.

As usually defined, the IC50 is the concentration at which inhibition is half-maximal.

The test system of assay [1] is HCT116 MTAP null cells. The assay is described as follows: HCT116 MTAP null cell line proliferation / cell viability (CellTiter-Glo, 6 days). The following applies: 144 h; HCT116 MTAP null cells, 6 days treatment, CellTiter-Glo cell viability; read-out: HCT-116 MTAP null IC50. The format is cell-based. In short, it runs like this: (§1)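 Anti-proliferative IC50s were derived from CellTiter-Glo signal in HCT116 parent and MTAP-null cells after six days on compound. Serial dilutions reached top concentrations of 1, 10 or 50 μM, with DMSO-only wells as control.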

Assay [2] relates to HCT116 WT cells. The assay is described as follows: HCT116 WT (parent) cell line proliferation / cell viability (CellTiter-Glo, 6 days). The format is cell-based. The note with it: Homo sapiens, HCT-116, 144 h, 6 days treatment. In short, it runs like this:
as §1
(In ATP-based viability assays light output follows the ATP content of the culture.)

Regarding `CN(C(=O)c1cc2c(cc1F)nc(N)c1cnn(C)c12)[C@@H]1COc2cc(S(C)(=O)=O)ccc21` (single isomer, unassigned) [Example 378], the half-maximal inhibitory concentration (IC50) is 10 nM in assay [1] and 239 nM in assay [2].

For `CN(C(=O)c1cc2c(cc1F)nc(N)c1cnn(C)c12)[C@H]1COc2cc(S(C)(=O)=O)ccc21` (single isomer, unassigned) [Example 379], the IC50 in assay [1] was 490 nM; in assay [2] it was 13500 nM.

In the case of `CN(C(=O)c1cc2c(cc1F)nc(N)c1cnn(C)c12)[C@@H]1COc2cc(C(F)(F)F)cc(F)c21` (single isomer, unassigned) [Example 380], the IC50 in assay [1] was 23 nM; in assay [2], 1540 nM.

For `CN(C(=O)c1cc2c(cc1F)nc(N)c1cnn(C)c12)[C@H]1COc2cc(C(F)(F)F)cc(F)c21` (single isomer, unassigned) [Example 381], the half-maximal inhibitory concentration (IC50) was determined as 195 nM in assay [1] and 11100 nM in assay [2].

Take `CN(C(=O)c1cc2c(cc1F)nc(N)c1cnn(C)c12)[C@@H]1COc2cc(S(F)(F)(F)(F)F)ccc21` (single isomer, unassigned) [Example 382]: the half-inhibitory concentration (IC50) was determined as 4 nM in assay [1] and 63 nM in assay [2].

As to `CN(C(=O)c1cc2c(cc1F)nc(N)c1cnn(C)c12)[C@H]1COc2cc(S(F)(F)(F)(F)F)ccc21` (single isomer, unassigned) [Example 383], the IC50 in assay [1] came out at 380 nM; in assay [2], 5660 nM.

As for `CN(C(=O)c1cc2c(cc1Cl)nc(N)c1cnn(C)c12)[C@]1(C)CCc2nc(C(F)(F)F)ccc21` (single isomer, unassigned) [Example 384], the IC50 was 869 nM in assay [1] and 17200 nM in assay [2].

As to `CN(C(=O)c1cc2c(cc1Cl)nc(N)c1cnn(C)c12)[C@@H]1CCc2nc(C(F)(F)F)ccc21` (single isomer, unassigned) [Example 385], the half-maximal inhibitory concentration (IC50) in assay [1] was determined as 7 nM; in assay [2], 297 nM.

In the case of `CN(C(=O)c1cc2c(cc1Cl)nc(N)c1cnn(C)c12)[C@H]1CCc2nc(C(F)(F)F)ccc21` (single isomer, unassigned) [Example 386], the IC50 was determined as 552 nM in assay [1] and 13600 nM in assay [2].

For the molecule `CN(C(=O)c1cc2c(cc1Cl)nc(N)c1cnn(C)c12)[C@@H]1COc2nc(C(F)(F)F)ccc21` (single isomer, unassigned) [Example 387], the 50% inhibitory concentration (IC50) in assay [1] was found to be 5 nM; in assay [2], 136 nM.

In the case of `CN(C(=O)c1cc2c(cc1Cl)nc(N)c1cnn(C)c12)[C@H]1COc2nc(C(F)(F)F)ccc21` (single isomer, unassigned) [Example 388], the IC50 in assay [1] is 136 nM; in assay [2], 7540 nM.

Take `CN(C(=O)c1cc2c(cc1F)nc(N)c1c2cnn1C)[C@@H]1CCc2nc(C(F)(F)F)ccc21` (single isomer, unassigned) [Example 389]: the half-maximal inhibitory concentration (IC50) is 185 nM in assay [1] and 17200 nM in assay [2].

In the case of `CN(C(=O)c1cc2c(cc1F)nc(N)c1c2cnn1C)[C@H]1CCc2nc(C(F)(F)F)ccc21` (single isomer, unassigned) [Example 390], the IC50 in assay [1] was determined as 6550 nM; in assay [2], 25000 nM.

For the molecule `Cc1nn(C)c2c1c(N)nc1cc(F)c(C(=O)N(C)[C@@H]3COc4cc(S(F)(F)(F)(F)F)ccc43)cc12` (single isomer, unassigned) [Example 391], the concentration for half-maximal inhibition (IC50) in assay [1] was 38 nM; in assay [2] it was 1040 nM.

As to `Cc1nn(C)c2c1c(N)nc1cc(F)c(C(=O)N(C)[C@H]3COc4cc(S(F)(F)(F)(F)F)ccc43)cc12` (single isomer, unassigned) [Example 392], the half-inhibitory concentration (IC50) worked out at 995 nM in assay [1] and 8300 nM in assay [2].

For the molecule `COc1ccc2c(c1)COC[C@H]2N(C)C(=O)c1ccc2nc(N)c3c(c2c1)COC3` (single isomer, unassigned) [Example 393], the figures for the half-inhibitory concentration (IC50) in assay [1] and in assay [2] were 136 nM and 4070 nM, respectively.

With `C[C@H]1OCc2c1c(N)nc1ccc(C(=O)N(C)[C@@H]3COCc4cc(Br)ccc43)cc21` (single isomer, unassigned) [Example 394], the IC50 in assay [1] came to 25 nM; in assay [2], 1440 nM.
